In patent US20260070902A1, “SULFONYL DERIVATIVES AS CCR6 INHIBITORS” (Hoffmann-La Roche Inc., priority 2022, published 2026):

Experiments:
human CCR6 [1] = target: T1, human CCR6 (Homo sapiens, UniProt P51684); experiment: CHO-K1 CCR6 chemotaxis assay towards CCL20; type: cell-based; conditions: relative -Log IC50; CHO-K1 cells overexpressing human CCR6; migration towards 100 ng/ml CCL20; 4 h
T1 sequence (P51684 1-374): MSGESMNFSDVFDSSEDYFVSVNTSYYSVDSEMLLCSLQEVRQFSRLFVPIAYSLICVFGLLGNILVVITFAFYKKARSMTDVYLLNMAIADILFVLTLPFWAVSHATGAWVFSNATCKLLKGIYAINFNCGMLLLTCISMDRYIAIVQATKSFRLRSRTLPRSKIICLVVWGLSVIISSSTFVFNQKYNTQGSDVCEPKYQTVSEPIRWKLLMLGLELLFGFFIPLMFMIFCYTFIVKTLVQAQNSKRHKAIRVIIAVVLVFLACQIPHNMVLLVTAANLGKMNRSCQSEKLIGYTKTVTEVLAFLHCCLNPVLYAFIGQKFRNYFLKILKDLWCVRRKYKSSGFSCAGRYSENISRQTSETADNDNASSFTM
Source text: CHO-K1 CCR6 Chemotaxis Assay Towards CCL20
Cells overexpressing human CCR6 were used in the chemotaxis assay (DiscoverX, cAMP Hunter™ CHO-K1 CCR6 Gi Cell Line). Growth medium of these cells consisted of DMEM/F12, non-essential Amino acids (1×NEAA, Gibco 11140050), 10% FBS and 1× pen/strep (Gibco 15140). For the chemotaxis assay, Corning Transwell plates were used with a pore size of 8 m (Corning 351164). Cells were harvested using trypsin and diluted to 4*10^6 cells/ml in chemotaxis medium (DMEM, 0.25% BSA, pen/strep). Compounds were four-fold serially diluted in DMSO. Further dilutions were made in chemotaxis medium. Cells were incubated with test compounds for 30 min at 37° C. prior to initiation of the assay (2*10^6 cells/ml). Final DMSO concentration in the assay was 0.2%. Wells of the Transwell plates were filled with 200 μl chemotaxis medium containing 100 ng/ml CCL20 (R&D systems 360-MP). 50 μl of the cell/compound suspension was added to the inserts of the Transwell plates (100,000 cells/insert). The Transwell plates were placed in an incubator at 37° C., 5% CO2 for 4 h. After 4 h, the number of migrated cells was quantified using CellTiter Glo (Promega). Percentage inhibition values were calculated based on the low and high signal obtained with 0.2% DMSO in chemotaxis medium without and with CCL20, respectively. The relative −Log IC50 was determined with GraphPad Prism 9 using a four-parameter dose-response model.

human CCR6 [2] = target: T1, human CCR6; experiment: Human CCR6-CRE reporter assay; type: cell-based; set-up: The second construct contained the open reading frame of human CCR6 in the pUNO1 backbone; host or cells: 293FT cells; conditions: relative -Log IC50; 293FT cells transfected with human CCR6 and CRE-luciferase reporter; 6 μM Forskolin, 6 nM CCL20; 5 h
Summary of the method: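 293FT cells transiently co-transfected with human CCR6 and a CRE-luc2P reporter, used 48 h later. Compounds incubated with cells in medium containing 6 μM Forskolin and 6 nM CCL20 (assay-medium levels), 0.1% DMSO final, 5 h at 37° C; luminescence read, relative −Log IC50 from four-parameter fit.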

Compound	IC50 (human CCR6 [1])	IC50 (human CCR6 [2])
CC(C)c1cnc2ccc(-c3ccc(S(=O)(=O)[C@H]4CC[C@H](Nc5ccc(S(F)(F)(F)(F)F)cc5)CC4)cc3)cn12 [Example 63, 4-(pentafluoro-λ^6-sulfanyl)-N-[trans-4-{4-[3-(propan-2-yl)imidazo[1,2-a]pyridin-6-yl]benzenesulfonyl}cyclohexyl]aniline]	12.6 nM	39.8 nM
O=c1[nH]nc2ccc(-c3ccc(S(=O)(=O)[C@H]4CC[C@H](Nc5ccc(S(F)(F)(F)(F)F)cc5)CC4)cc3)cn12 [Example 66, 6-(4-{[trans-4-{[4-(pentafluoro-λ^6-sulfanyl)phenyl]Amino}cyclohexyl]sulfonyl}phenyl)-2H,3H-[1,2,4]triazolo[4,3-a]pyridin-3-one]	39.8 nM	63.1 nM
Cc1cnc2ccc(-c3ccc(S(=O)(=O)N4CCC(Nc5ccc(S(F)(F)(F)(F)F)cc5)CC4)cn3)cn12 [Example 69, 1-[(6-{3-methylimidazo[1,2-a]pyridin-6-yl}pyridin-3-yl)sulfonyl]-N-[4-(pentafluoro-λ^6-sulfanyl)phenyl]piperidin-4-amine]	794 nM	794 nM
N#Cc1cnc2ccc(-c3ccc(S(=O)(=O)N4CCC(Nc5ccc(S(F)(F)(F)(F)F)cc5)CC4)c(F)c3)cn12 [Example 73, 6-{3-fluoro-4-[(4-{[4-(pentafluoro-λ^6-sulfanyl)phenyl]Amino}piperidin-1-yl)sulfonyl]phenyl}imidazo[1,2-a]pyridine-3-carbonitrile]	631 nM	501 nM
O=S(=O)(c1ccc(-c2ccc3nccn3c2)cc1F)N1CCC(Nc2ccc(S(F)(F)(F)(F)F)cc2)CC1 [Example 74, 1-(2-fluoro-4-{imidazo[1,2-a]pyridin-6-yl}benzenesulfonyl)-N-[4-(pentafluoro-λ^6-sulfanyl)phenyl]piperidin-4-amine]	794 nM	501 nM
N#Cc1cnc2ccc(-c3ccc(S(=O)(=O)N4CCC(Nc5ccc(S(F)(F)(F)(F)F)cc5)CC4)cn3)cn12 [Example 76, 6-{5-[(4-{[4-(pentafluoro-λ^6-sulfanyl)phenyl]Amino}piperidin-1-yl)sulfonyl]pyridin-2-yl}imidazo[1,2-a]pyridine-3-carbonitrile]	501 nM	794 nM
CC(C)c1nnc2ccc(-c3ccc(S(=O)(=O)N4CCC(Nc5cccc(S(F)(F)(F)(F)F)c5)CC4)cc3)cn12 [Example 84, N-[3-(pentafluoro-λ^6-sulfanyl)phenyl]-1-{4-[3-(propan-2-yl)-[1,2,4]triazolo[4,3-a]pyridin-6-yl]benzenesulfonyl}piperidin-4-amine]	126 nM	50.1 nM
CN(C)C(=O)c1ccc(-c2ccc(S(=N)(=O)[C@H]3CC[C@H](Nc4ccc(S(F)(F)(F)(F)F)cc4)CC3)cc2)cc1 (stereo partly drawn) [Example 92, N,N-dimethyl-4′-{[trans-4-{[4-(pentafluoro-λ^6-sulfanyl)phenyl]Amino}cyclohexyl]sulfonimidoyl}-[1,1′-biphenyl]-4-carboxamide]	1580 nM	200 nM
CNC(=O)c1ccc(-c2ccc(S(=N)(=O)[C@H]3CC[C@H](Nc4ccc(S(F)(F)(F)(F)F)cc4)CC3)cc2)cc1 (stereo partly drawn) [Example 95, N-methyl-4′-{[trans-4-{[4-(pentafluoro-λ^6-sulfanyl)phenyl]Amino}cyclohexyl]sulfonimidoyl}-[1,1′-biphenyl]-4-carboxamide]	501 nM	251 nM
N=S(=O)(c1ccc(-c2ccc(C(N)=O)cc2)cc1)[C@H]1CC[C@H](Nc2ccc(S(F)(F)(F)(F)F)cc2)CC1 (stereo partly drawn) [Example 96, 4′-{[trans-4-{[4-(pentafluoro-λ^6-sulfanyl)phenyl]Amino}cyclohexyl]sulfonimidoyl}-[1,1′-biphenyl]-4-carboxamide]	501 nM	158 nM
CNC(=O)c1cccc(-c2ccc(S(=N)(=O)[C@H]3CC[C@H](Nc4ccc(S(F)(F)(F)(F)F)cc4)CC3)cc2)c1 (stereo partly drawn) [Example 98, N-methyl-4′-{[trans-4-{[4-(pentafluoro-λ^6-sulfanyl)phenyl]Amino}cyclohexyl]sulfonimidoyl}-[1,1′-biphenyl]-3-carboxamide]	251 nM	200 nM
N=S(=O)(c1ccc(-c2cccc(C(N)=O)c2)cc1)[C@H]1CC[C@H](Nc2ccc(S(F)(F)(F)(F)F)cc2)CC1 (stereo partly drawn) [Example 99, 4′-{[trans-4-{[4-(pentafluoro-λ^6-sulfanyl)phenyl]Amino}cyclohexyl]sulfonimidoyl}-[1,1′-biphenyl]-3-carboxamide]	501 nM	200 nM
CNC(=O)c1ccc(-c2ccc(S(=N)(=O)[C@H]3CC[C@H](Nc4ccc(S(F)(F)(F)(F)F)cc4)CC3)cc2)cn1 (stereo partly drawn) [Example 101, N-methyl-5-(4-{[trans-4-{[4-(pentafluoro-λ^6-sulfanyl)phenyl]Amino}cyclohexyl]sulfonimidoyl}phenyl)pyridine-2-carboxamide]	794 nM	316 nM

More lines, now with the values ahead:

IC50 (human CCR6 [1])	IC50 (human CCR6 [2])	Compound
631 nM	398 nM	Cc1nnc2ccc(-c3ccc(S(=N)(=O)[C@H]4CC[C@H](Nc5ccc(S(F)(F)(F)(F)F)cc5)CC4)cc3)cn12 (stereo partly drawn) [Example 105, (4-{3-methyl-[1,2,4]triazolo[4,3-a]pyridin-6-yl}phenyl)[trans-4-{[4-(pentafluoro-λ^6-sulfanyl)phenyl]Amino}cyclohexyl](imino)-λ^6-sulfanone]
158 nM	251 nM	CNC(=O)c1ccc(-c2ccc(S(=N)(=O)N3CCC(Nc4ccc(S(F)(F)(F)(F)F)cc4)CC3)cc2)cn1 (stereo not drawn) [Example 121, N-methyl-5-{4-[(4-{[4-(pentafluoro-λ^6-sulfanyl)phenyl]Amino}piperidin-1-yl)sulfonimidoyl]phenyl}pyridine-2-carboxamide]
200 nM	251 nM	N=S(=O)(c1ccc(-c2ccc3c(c2)CC(=O)N3)cc1)N1CCC(Nc2ccc(S(F)(F)(F)(F)F)cc2)CC1 (stereo not drawn) [Example 123, 5-{4-[(4-{[4-(pentafluoro-λ^6-sulfanyl)phenyl]Amino}piperidin-1-yl)sulfonimidoyl]phenyl}-2,3-dihydro-1H-indol-2-one]
126 nM	200 nM	N=S(=O)(c1ccc(-c2ccc3nccn3c2)cc1)N1CCC(Nc2ccc(S(F)(F)(F)(F)F)cc2)CC1 (stereo not drawn) [Example 124, (4-{imidazo[1,2-a]pyridin-6-yl}phenyl)(4-{[4-(pentafluoro-λ^6-sulfanyl)phenyl]Amino}piperidin-1-yl)(imino)-λ^6-sulfanone]
20 nM	63.1 nM	CNC(=O)c1cc(-c2ccc(S(=O)(=O)N3CCC(Nc4ccc(S(F)(F)(F)(F)F)cc4)CC3)cc2)ccc1F [Example 138, 4-fluoro-N-methyl-4′-[(4-{[4-(pentafluoro-λ^6-sulfanyl)phenyl]amino}piperidin-1-yl)sulfonyl]-[1,1′-biphenyl]-3-carboxamide]
10 nM	63.1 nM	CNC(=O)c1ccc(-c2ccc(S(=O)(=O)N3CCC(Nc4ccc(S(F)(F)(F)(F)F)cc4)CC3)cc2)cc1F [Example 139, 3-fluoro-N-methyl-4′-[(4-{[4-(pentafluoro-λ^6-sulfanyl)phenyl]amino}piperidin-1-yl)sulfonyl]-[1,1′-biphenyl]-4-carboxamide]
25.1 nM	251 nM	Cc1n[nH]c2cnc(-c3ccc(S(=O)(=O)[C@H]4CC[C@H](Nc5ccc(S(F)(F)(F)(F)F)cc5)CC4)cc3)cc12 [Example 142, 4-(pentafluoro-λ^6-sulfanyl)-N-[trans-4-(4-{3-methyl-1H-pyrazolo[3,4-c]pyridin-5-yl}benzenesulfonyl)cyclohexyl]aniline]
39.8 nM	200 nM	O=S(=O)(c1ccc(-c2cc3cn[nH]c3cn2)cc1)[C@H]1CC[C@H](Nc2ccc(S(F)(F)(F)(F)F)cc2)CC1 [Example 147, 4-(pentafluoro-λ^6-sulfanyl)-N-[trans-4-(4-{1H-pyrazolo[3,4-c]pyridin-5-yl}benzenesulfonyl)cyclohexyl]aniline]
